The source of these data is US9115145B2, “Tocotrienol derivatives and associated methods” (FIRST TECH INTERNATIONAL LIMITED, priority 2011, dated 2015).

In assay [1] the test system is +SA mammary epithelial cells. The assay can be described thus: MTT assay of +SA cells (antiproliferative activity). In kind it is cell-based, mouse. As for the experimental part: The antiproliferative activities of Compounds 3-44 against the highly metastatic malignant +SA mammary epithelial cells were evaluated by MTT assay. Materials for the assay were purchased from Sigma Chemical Company (St. Louis, Mo.) unless otherwise stated. The highly malignant +SA mouse mammary epithelial cell line was serially passaged at subconfluent cell density. The +SA mammary tumor cell line was derived from an adenocarcinoma that developed spontaneously in a BALB/c female mouse. +SA cells were maintained in serum-free defined medium consisting of Dulbecco's modified Eagle's medium (DMEM)/F12 containing 5 mg/mL bovine serum albumin (BSA), 10 […], 100 U/mL soybean trypsin inhibitor, 100 U/mL penicillin G, 0.1 mg/mL streptomycin, […], and 10 ng/mL epidermal growth factor. For subculturing, cells were rinsed twice with sterile Ca2+ and Mg2+-free phosphate buffered saline (PBS) and incubated in 0.05% trypsin containing 0.025% EDTA in PBS for 5 min at 37° C. The released cells were centrifuged, resuspended in fresh media and counted using hemocytometer. A stock solution of the compounds was prepared in DMSO. Once dissolved, this solution was added to a small volume of sterile 10% BSA in water and incubated overnight at 37° C. This solution conjugated to BSA was used to prepare various concentrations (0-40 μM) of tocotrienol analogs. DMSO was added to all treatment media such that the final DMSO concentration was the same in all treatment groups within a given experiment and was always less than 0.1%. For cytotoxic studies, cells were seeded at a density of 5×10^4 cells/well (+SA cells) or 1×10^5 cells/well (CL-S1 cells) (6 wells/group) in 24-well culture plates and allowed to grow in their respective control media. After 3 days incubation period (approximately 70% confluency), cells were divided equally into various treatment groups and exposed to their respective treatments for a 24 hours incubation period. Following the 24 hours treatment period, cell viability was measured using the MTT assay.
+SA Mammary epithelial cell viable number was determined by a 3-(4,5-dimethylthiazol-2yl)-2,5-diphenyl tetrazolium bromide (MTT) colorimetric assay. On the assay day, treatment medium was replaced with fresh control medium containing 0.42 mg/mL MTT, and the cells in 24-well plates were incubated at 37° C. for 4 hours. Afterward, the medium was removed, and the MTT crystals were dissolved in isopropyl alcohol (1 mL/well). The optical density of each sample was read at 570 nm on a microplate reader (SpectraCount, Packard BioScience Company), against a blank prepared from cell-free cultures. The number of cells/well was calculated against a standard curve prepared by plating various concentrations of cells, as determined by hemocytometer, at the start of each experiment.
Differences among the various treatment groups in +SA cell cytotoxic studies were determined by analysis of variance (ANOVA) followed by Dunnett's t-test. The difference of P<0.05 was considered to be statistically significant as compared with vehicle-treated controls unless separately described. Linear regression analysis of treatment effects on viable cell number in growth and cytotoxicity studies was used to determine the 50% growth inhibition concentration (IC50) for individual treatments.
Background: Tetrazolium dyes change colour on reduction, which living cells bring about.

Assay [2] relates to MCF7 human breast cancer cell line. Description: MTT assay of MCF7 cells. In kind it is cell-based. The conditions noted are these: Homo sapiens, media containing 1% fetal bovine serum. As for the experimental part: (§1) MDA-MB-231 and MCF7 cells were plated at a density of 8×10^3 cells/well and 10^4 cells/well in 96-well culture plates, respectively. The compounds were fed in serum free media containing 5% and 1% fetal bovine serum for MDA-MB-231 and MCF7 cells, respectively.

The test system of assay [3] is MDA-MB-231 human breast cancer cell line. Description: MTT assay of MDA-MB-231 cells. In kind it is cell-based. The conditions noted are these: Homo sapiens, media containing 5% fetal bovine serum. How it is done: as §1
For assay [4], the system named is MCF 10A non-tumorigenic mammary epithelial cells. The assay can be described thus: MTT assay of MCF10A cells. The following applies: for IC50: Homo sapiens; for Selectivity index: IC50 for MCF 10A divided by IC50 for +SA cell line. The class given is cell-based, human. An outline of the steps:
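MCF 10A non-tumorigenic human mammary epithelial cells were seeded at 10×10^4 cells/well and treated with compounds in serum-free medium, final DMSO below 0.1%. Viability was read by MTT, and IC50 came from non-linear regression. Selectivity index = MCF 10A IC50 ÷ +SA cell line IC50.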

Assay [5] relates to leukemia and colon cancer cell lines. Description: NCI screening at several concentrations (GI50, TGI, LC50). The class given is cell-based, human. How it is done: The human tumor cell lines of the cancer screening panel were grown in RPMI 1640 medium containing 5% fetal bovine serum and 2 mM L-glutamine. For a typical screening experiment, cells are inoculated into 96 well microtiter plates in 100 μL at plating densities ranging from 5000 to 40,000 cells/well depending on the doubling time of individual cell lines. After cell inoculation, the microtiter plates are incubated at 37° C., 5% CO2, 95% air and 100% relative humidity for 24 hours prior to addition of experimental drugs. After 24 hours, two plates of each cell line are fixed in situ with Trichloroacetic acid (“TCA”), to represent a measurement of the cell population for each cell line at the time of drug addition. Experimental drugs are solubilized in dimethyl sulfoxide at 400-fold the desired final maximum test concentration and stored frozen prior to use. At the time of drug addition, an aliquot of frozen concentrate is thawed and diluted to twice the desired final maximum test concentration with complete medium containing 50 ng/mL gentamicin. An aliquot of 100 μL of this drug dilution is added to the appropriate microtiter wells already containing 100 μL of medium, resulting in the required final drug concentrations. Following drug addition, the plates are incubated for an additional 48 h at 37° C., 5% CO2, 95% air, and 100% relative humidity. For adherent cells, the assay is terminated by the addition of cold TCA. Cells are fixed in situ by the gentle addition of 50 μL of cold 50% (w/v) TCA (final concentration, 10% TCA) and incubated for 60 min at 4° C. The supernatant is discarded, and the plates are washed five times with tap water and air dried. Sulforhodamine B (SRB) solution (100 μL) at 0.4% (w/v) in 1% acetic acid is added to each well, and plates are incubated for 10 min at room temperature. After staining, unbound dye is removed by washing five times with 1% acetic acid and the plates are air dried. Bound stain is subsequently solubilized with 10 mM trizma base, and the absorbance is read on an automated plate reader at a wavelength of 515 nm. For suspension cells, the methodology is the same except that the assay is terminated by fixing settled cells at the bottom of the wells by gently adding 50 μL of 80% TCA (final concentration, 16% TCA). FIGS. 37-74 indicate the growth inhibition effects of selected Compounds against a variety of cell lines based on the above described testing configuration. FIGS. 37-74 present the Growth percent for a given compound against the cell lines and both values and a bar chart of the difference between the mean growth percent and the growth percent which is an indication of the selectivity of the compound for that particular cell line. […]

The subject of assay [6] is MDA-MB-231 human breast cancer cells. The assay can be described thus: Wound-healing assay (cell migration). The following applies: Homo sapiens; MDA-MB-231, wound-healing assay, dose response; read-out: IC50 antimigratory activity. The class given is cell-based. In short, it runs like this:
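Scratch wounds made in confluent (>95%) monolayers, then compounds added in fresh medium (5 μM in screening; concentration range in follow-up), DMSO as negative control, triplicate. After 24 h serum-starved at 37 °C, cells fixed and Diff-Quick stained. Migrated cells counted per 400× field (≥3 fields); IC50 from concentration range.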

The test system of assay [7] is 60 human tumor cell lines. Description: NCI in vitro screening against 60 human cell lines, single concentration. In kind it is cell-based. The conditions noted are these: 10 μM dose; negative values indicate cytotoxicity. As for the experimental part: Compounds selected from Compounds 3-44 were provided to the National Cancer Institute for in vitro screening against 60-human cell lines for their ability to inhibit the growth of tumor cells in a full panel representing nine different organs (blood, lung, colon, CNS, skin, ovary, kidney, prostate, and breast). The compounds were tested at a single concentration of 10 μM, and the percentages of growth inhibitions over the sixty tested cell lines were determined. Compounds showing the highest activity were chosen for secondary assays using five different compound concentrations.
The human tumor cell lines of the cancer screening panel were grown in RPMI 1640 medium containing 5% fetal bovine serum and 2 mM L-glutamine. For a typical screening experiment, cells are inoculated into 96 well microtiter plates in 100 μL at plating densities ranging from 5000 to 40,000 cells/well depending on the doubling time of individual cell lines. After cell inoculation, the microtiter plates are incubated at 37° C., 5% CO2, 95% air and 100% relative humidity for 24 hours prior to addition of experimental drugs. After 24 hours, two plates of each cell line are fixed in situ with Trichloroacetic acid (“TCA”), to represent a measurement of the cell population for each cell line at the time of drug addition. Experimental drugs are solubilized in dimethyl sulfoxide at 400-fold the desired final maximum test concentration and stored frozen prior to use. At the time of drug addition, an aliquot of frozen concentrate is thawed and diluted to twice the desired final maximum test concentration with complete medium containing 50 ng/mL gentamicin. An aliquot of 100 μL of this drug dilution is added to the appropriate microtiter wells already containing 100 μL of medium, resulting in the required final drug concentrations. Following drug addition, the plates are incubated for an additional 48 h at 37° C., 5% CO2, 95% air, and 100% relative humidity. For adherent cells, the assay is terminated by the addition of cold TCA. Cells are fixed in situ by the gentle addition of 50 μL of cold 50% (w/v) TCA (final concentration, 10% TCA) and incubated for 60 min at 4° C. The supernatant is discarded, and the plates are washed five times with tap water and air dried. Sulforhodamine B (SRB) solution (100 μL) at 0.4% (w/v) in 1% acetic acid is added to each well, and plates are incubated for 10 min at room temperature. After staining, unbound dye is removed by washing five times with 1% acetic acid and the plates are air dried. Bound stain is subsequently solubilized with 10 mM trizma base, and the absorbance is read on an automated plate reader at a wavelength of 515 nm. For suspension cells, the methodology is the same except that the assay is terminated by fixing settled cells at the bottom of the wells by gently adding 50 μL of 80% TCA (final concentration, 16% TCA). FIGS. 37-74 indicate the growth inhibition effects of selected Compounds against a variety of cell lines based on the above described testing configuration. FIGS. 37-74 present the Growth percent for a given compound against the cell lines and both values and a bar chart of the difference between the mean growth percent and the growth percent which is an indication of the selectivity of the compound for that particular cell line.

[8] abbreviates: MCF-10A, MCF10A cells, Table II, non-linear regression, read-out: MCF10A (IC50).
[9] abbreviates: MCF 10A non-tumorigenic cells, Table I, read-out: IC50 MCF 10A.

Like-named read-outs stand apart in the source and are kept apart here. Where only a bound is given, the exact number is not on record here.

As to `CC(C)=CCC/C(C)=C/CC/C(C)=C/CC[C@]1(C)CCc2c3c(c(C)c(C)c2O1)OCN(CCCCCO)C3` [Compound 17, 5-((R)-5,6,8-trimethyl-8-((3E,7E)-4,8,12-trimethyltrideca-3,7,11-trienyl)-9,10-dihydrochromeno[5,6-e][1,3]oxazin-2(1H,3H,8H)-yl)pentan-1-ol], in assay [1] (described from FIG. 32 / text), the “antiproliferative activity against +SA mammary tumor cells (in words)” value is listed as “very high activities”. Also, the IC50 is over 20 µM in assay [2], over 50 µM in assay [3], 8.9 µM in assay [4] (setting [8]) and 8.9 µM in assay [4] (setting [9]). In addition, the Selectivity index in assay [4] is 5.24. Further, in assay [5], the GI50 result is given as “nanomolar”.

Take `CC(C)=CCC/C(C)=C/CC/C(C)=C/CC[C@]1(C)CCc2c3c(cc(C)c2O1)OCN(CCCCCCCCO)C3` [Compound 40, 8-((R)-6,8-dimethyl-8-((3E,7E)-4,8,12-trimethyltrideca-3,7,11-trienyl)-9,10-dihydrochromeno[5,6-e][1,3]oxazin-2(1H,3H,8H)-yl)octan-1-ol]: the IC50 is over 20 µM in assay [2]; 11.7 µM in assay [3]; 1.7 µM in assay [4] (setting [8]); 1.7 µM in assay [4] (setting [9]); 4.9 µM in assay [6]. The same molecule came in with a Selectivity index in assay [4] of 2.15. Also, the “mean percent growth across all 60 cell lines (mean 60)” value in assay [7] is given as “negative”. The GI50 result in assay [5] is reported as “nanomolar”.

`CC(C)=CCC/C(C)=C/CC/C(C)=C/CC[C@]1(C)CCc2c3c(cc(C)c2O1)OCN(CCCCCCO)C3` [Compound 38, 6-((R)-6,8-dimethyl-8-((3E,7E)-4,8,12-trimethyltrideca-3,7,11-trienyl)-9,10-dihydrochromeno[5,6-e][1,3]oxazin-2(1H,3H,8H)-yl)hexan-1-ol]: the IC50 in assay [2] is over 20 µM; in assay [3] it was over 5 µM; in assay [4] (setting [8]), 2.5 µM; in assay [4] (setting [9]), 2.5 µM; in assay [6] it was 1.5 µM. Moreover, the Selectivity index in assay [4] stood at 1.92. For the same molecule, in assay [7], the “mean percent growth across all 60 cell lines (mean 60)” value was “negative”. For the same molecule, the GI50 entry in assay [5] is “nanomolar”.

As for `CC(C)=CCC/C(C)=C/CC/C(C)=C/CC[C@]1(C)CCc2c(CNCCc3ccc(O)cc3)c(O)c(C)c(C)c2O1` [Compound 31, (R)-5-((4-hydroxyphenethylamino)methyl)-2,7,8-trimethyl-2-((3E,7E)-4,8,12-trimethyltrideca-3,7,11-trienyl)chroman-6-ol], the IC50 in assay [1] (Mus musculus, +SA cell, 24 hours treatment, read-out: IC50 antiproliferative activity against +SA mammary epithelial cells) is 0.47 µM. Moreover, the “mean percent growth across all 60 cell lines (mean 60)” value in assay [7] was “comparable to the activity of Compound 1”.

With `CC(C)=CCC/C(C)=C/CC/C(C)=C/CC[C@]1(C)CCc2c3c(cc(C)c2O1)OCN(C1CCN(Cc2ccccc2)CC1)C3` [Compound 8, (R)-2-(1-benzylpiperidin-4-yl)-6,8-dimethyl-8-((3E,7E)-4,8,12-trimethyltrideca-3,7,11-trienyl)-1,2,3,8,9,10-hexahydrochromeno[5,6-e][1,3]oxazine], in assay [5], the GI50 entry was “nanomolar”.

One may read the IC50 as the point on the concentration scale where inhibition reaches its midpoint.
